Starred links: 1 amine or outer side, 2 acyl side, 3 side chain; linkers in the order of their positions; H or OH if unused. Non-standard residues stand in square brackets, D forms with d. Residues, ends and D or L forms follow the SMILES beside them. NMeAbu(3S-Me,4-OC2H4Mor) = CN[C@H](C(=O)O)[C@H](C)COCCN1CCOCC1; X5 = C[C@H](COC(=O)N1CCN(C)CC1)[C@@H](C(=O)[*:2])N(C)[*:1]; X3 = C[C@H](CN1CCOCC1)[C@@H](C(=O)[*:2])N(C)[*:1]; MeBmt = C/C=C/C[C@@H](C)[C@@H](O)[C@H](NC)C(=O)O; NMeL = CN[C@@H](CC(C)C)C(=O)O; NMeV = CN[C@H](C(=O)O)C(C)C; dNMeA = CN[C@H](C)C(=O)O; Abu = CC[C@H](N)C(=O)O
Legend:
[1] = biological target: cyclophilin A (CypA) (Homo sapiens (Human), UniProt P62937); experiment: Inhibitor binding to cyclophilin proteins by SPR, CypA; parameters: unit not given here; conditions: 1:1 binding model;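 further: Single-cycle kinetics on a Biacore T200, compound injected at several concentrations for 1 min each at 50 µL/min, then 10 min dissociation, in HEPES pH 7.4 buffer with 3% DMSO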
Sequence of cyclophilin A (CypA) (P62937 whole entry): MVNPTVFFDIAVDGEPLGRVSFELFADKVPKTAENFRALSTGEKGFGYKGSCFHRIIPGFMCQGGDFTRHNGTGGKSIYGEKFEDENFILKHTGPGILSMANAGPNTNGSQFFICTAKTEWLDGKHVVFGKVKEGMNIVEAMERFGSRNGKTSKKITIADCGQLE

[2] = biological target: cyclophilin B (CypB) (Homo sapiens (Human), UniProt P23284); experiment: Inhibitor binding to cyclophilin proteins by SPR, CypB; parameters: unit not given here; conditions: 1:1 binding model
Sequence of cyclophilin B (CypB) (P23284 34-216): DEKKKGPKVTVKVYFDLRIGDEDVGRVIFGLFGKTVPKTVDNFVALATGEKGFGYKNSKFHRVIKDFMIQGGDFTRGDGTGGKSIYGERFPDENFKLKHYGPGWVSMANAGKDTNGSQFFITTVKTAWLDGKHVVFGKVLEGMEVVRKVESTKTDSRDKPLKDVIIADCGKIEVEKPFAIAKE
In short: (§1)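 Running buffer: 10 mM HEPES pH 7.4, 150 mM NaCl, 0.05% P20, 3% DMSO, with compound present. Capture of avi-tagged mono-biotinylated cyclophilin; single-cycle series, 1 min contact, 10 min dissociation. Rates and affinity fitted to a 1:1 interaction model.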

[3] = biological target: CypF (Homo sapiens (Human), UniProt P30405); experiment: Inhibitor binding to cyclophilin proteins by SPR, CypF; conditions: 1:1 binding model
Sequence of CypF (P30405 30-207): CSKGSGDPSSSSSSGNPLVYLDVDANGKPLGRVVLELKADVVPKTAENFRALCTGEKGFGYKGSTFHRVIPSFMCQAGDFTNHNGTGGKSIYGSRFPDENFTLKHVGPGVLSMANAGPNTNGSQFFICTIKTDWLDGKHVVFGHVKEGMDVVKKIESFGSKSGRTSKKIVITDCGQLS
In short: as §1

[4] = biological target: Human MRP2 (Homo sapiens (Human), UniProt Q92887); experiment: MRP2 transporter vesicle assay; format: in vitro ADME
Sequence of Human MRP2 (Q92887 whole entry): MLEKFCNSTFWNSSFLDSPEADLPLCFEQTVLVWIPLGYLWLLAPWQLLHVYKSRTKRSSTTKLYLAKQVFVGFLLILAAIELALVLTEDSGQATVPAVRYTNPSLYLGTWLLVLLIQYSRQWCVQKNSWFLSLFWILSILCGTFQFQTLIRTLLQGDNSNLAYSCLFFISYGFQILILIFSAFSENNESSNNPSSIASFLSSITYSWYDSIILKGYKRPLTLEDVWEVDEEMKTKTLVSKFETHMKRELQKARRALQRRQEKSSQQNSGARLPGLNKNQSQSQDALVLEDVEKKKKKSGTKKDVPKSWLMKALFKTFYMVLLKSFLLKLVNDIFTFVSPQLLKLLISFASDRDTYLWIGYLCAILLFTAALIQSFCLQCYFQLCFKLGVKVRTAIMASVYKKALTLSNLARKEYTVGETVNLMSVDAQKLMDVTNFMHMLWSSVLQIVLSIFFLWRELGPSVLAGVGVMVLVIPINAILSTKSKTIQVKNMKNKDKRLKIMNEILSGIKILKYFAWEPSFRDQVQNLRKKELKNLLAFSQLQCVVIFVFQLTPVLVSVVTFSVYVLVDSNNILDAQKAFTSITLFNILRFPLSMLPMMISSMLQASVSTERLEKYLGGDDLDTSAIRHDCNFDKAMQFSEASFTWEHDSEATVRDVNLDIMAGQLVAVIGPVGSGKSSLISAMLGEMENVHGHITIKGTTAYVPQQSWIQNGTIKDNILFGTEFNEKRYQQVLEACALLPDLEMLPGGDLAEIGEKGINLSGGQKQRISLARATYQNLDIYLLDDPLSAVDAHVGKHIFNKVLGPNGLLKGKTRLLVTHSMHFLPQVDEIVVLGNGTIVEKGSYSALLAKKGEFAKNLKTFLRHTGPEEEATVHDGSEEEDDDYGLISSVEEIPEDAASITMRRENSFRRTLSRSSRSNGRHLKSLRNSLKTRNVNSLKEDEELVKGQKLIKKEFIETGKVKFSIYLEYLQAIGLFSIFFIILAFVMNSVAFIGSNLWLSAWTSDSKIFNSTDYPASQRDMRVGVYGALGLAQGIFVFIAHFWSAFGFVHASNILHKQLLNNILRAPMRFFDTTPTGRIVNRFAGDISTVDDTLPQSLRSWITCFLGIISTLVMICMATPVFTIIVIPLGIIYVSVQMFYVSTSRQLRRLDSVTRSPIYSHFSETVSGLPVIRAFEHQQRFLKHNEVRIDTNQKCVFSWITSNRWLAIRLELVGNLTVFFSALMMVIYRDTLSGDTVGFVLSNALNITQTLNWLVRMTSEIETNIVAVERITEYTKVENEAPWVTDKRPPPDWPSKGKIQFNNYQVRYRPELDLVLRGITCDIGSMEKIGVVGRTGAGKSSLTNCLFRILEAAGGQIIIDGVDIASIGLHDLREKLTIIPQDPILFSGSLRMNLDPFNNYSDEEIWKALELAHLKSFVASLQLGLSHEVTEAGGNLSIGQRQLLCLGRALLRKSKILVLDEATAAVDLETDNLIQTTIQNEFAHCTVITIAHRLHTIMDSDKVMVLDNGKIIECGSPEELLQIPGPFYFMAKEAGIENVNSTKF
Description: Method 4: Measuring Hepatic Transporter Interactions […] […] MRP2 Assay: Human MRP2 inhibition was tested using a BD Gentest Transporter Vesicle Assay Kit. Inside-out vesicles were prepared from insect Sf9 cells infected with baculovirus expressing hMRP2. […] The percent remaining of ATP dependent uptake activity was calculated as uptake activity in the presence of inhibitor divided by the uptake activity in the absence of inhibitor.

[5] = biological target: organic anion transporting polypeptide 1B1 (OATP1B1) (Homo sapiens (Human), UniProt Q9Y6L6); experiment: OATP assay in CHO-OATP1B1 cells;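 further: inhibition of probe substrate uptake into the cells, ten minutes exposure, accumulated substrate read by fluorescence once cells were lysed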
Sequence of organic anion transporting polypeptide 1B1 (OATP1B1) (Q9Y6L6 whole entry): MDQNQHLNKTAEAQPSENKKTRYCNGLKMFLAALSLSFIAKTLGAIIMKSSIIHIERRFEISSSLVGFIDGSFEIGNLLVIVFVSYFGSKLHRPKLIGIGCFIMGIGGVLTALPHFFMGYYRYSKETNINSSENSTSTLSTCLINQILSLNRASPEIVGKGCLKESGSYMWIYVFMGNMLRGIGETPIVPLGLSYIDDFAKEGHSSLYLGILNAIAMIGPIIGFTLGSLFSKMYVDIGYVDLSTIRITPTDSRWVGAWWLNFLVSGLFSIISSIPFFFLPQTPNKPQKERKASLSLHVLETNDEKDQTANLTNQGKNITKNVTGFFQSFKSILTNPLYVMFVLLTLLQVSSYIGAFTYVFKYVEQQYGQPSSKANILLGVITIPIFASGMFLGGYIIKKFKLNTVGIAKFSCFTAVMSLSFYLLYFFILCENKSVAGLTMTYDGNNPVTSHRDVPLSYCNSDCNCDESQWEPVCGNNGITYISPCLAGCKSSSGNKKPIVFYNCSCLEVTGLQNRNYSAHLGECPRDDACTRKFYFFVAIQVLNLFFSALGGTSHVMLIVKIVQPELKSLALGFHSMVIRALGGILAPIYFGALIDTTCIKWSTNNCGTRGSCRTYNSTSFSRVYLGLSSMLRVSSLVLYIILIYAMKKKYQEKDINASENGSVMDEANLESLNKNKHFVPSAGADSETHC

[6] = biological target: CYP3A4 (Homo sapiens (Human), UniProt P08684); experiment: Time-dependent inhibition of CYP3A4;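 further: Two-step in vitro assay, kobs derived from residual CYP3A4 activity versus preincubation time per concentration, then kinact and KI by nonlinear fit of kobs against concentration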
Sequence of CYP3A4 (P08684 whole entry): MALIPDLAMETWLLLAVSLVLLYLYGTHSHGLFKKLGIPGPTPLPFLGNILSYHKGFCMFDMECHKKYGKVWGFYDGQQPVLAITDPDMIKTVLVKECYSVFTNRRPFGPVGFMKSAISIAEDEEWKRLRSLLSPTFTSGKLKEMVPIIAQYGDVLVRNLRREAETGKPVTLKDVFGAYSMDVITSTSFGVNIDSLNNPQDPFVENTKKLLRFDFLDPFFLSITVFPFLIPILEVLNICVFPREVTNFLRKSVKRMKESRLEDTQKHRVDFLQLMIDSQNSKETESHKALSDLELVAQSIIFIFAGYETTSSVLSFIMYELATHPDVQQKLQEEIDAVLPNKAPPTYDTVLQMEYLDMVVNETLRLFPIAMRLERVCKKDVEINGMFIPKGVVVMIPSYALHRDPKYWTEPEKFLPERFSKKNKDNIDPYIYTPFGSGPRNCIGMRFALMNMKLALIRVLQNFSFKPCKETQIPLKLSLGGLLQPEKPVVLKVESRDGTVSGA
Description: Method 5: Measuring Time-Dependent Inhibition of CYP3A4
The CYP3A4 time dependent inhibition potential of various inhibitors was determined by a two step in vitro assay. […] The inactivation rate constant (kobs) was obtained by plotting the activity remaining over pre-incubation time for each concentration of compound. The maximal inactivation rate (kinact) and the inactivation potency (KI) were calculated by non linear regression analysis of the inactivation rate constant (kobs) versus compound concentrations [I] curve according to the equation kobs=[kinact·[I]]/[KI+[I]]

[7] = tested on: HBV in HepG2215 cells; conditions: cited from earlier work
[8] = tested on: genotype 1b subgenomic HCV replicon in Huh7.5 cells; format: cell-based, hepatitis C virus; conditions: genotype 1b replicon, 72 h incubation; read-out: RPLN-1b IC50
In short: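 Replicon inhibition read as renilla luciferase signal versus DMSO controls after 72 h incubation, in Huh7.5 cells harbouring a genotype 1b subgenomic replicon; medium phenol red-free DMEM lacking G418. CC50 determined in parallel via Cell Titer-Glo.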

[9] = tested on: peripheral blood mononuclear cells (PBMC); experiment: Anti-proliferative or immunosuppressive activity, BrdU incorporation in PHA-stimulated PBMC; format: cell-based; conditions: PHA 3 μg/ml, 60 hour compound treatment; read-out: EMV PBMC IC50
In short: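 BrdU ELISA read-out of DNA synthesis in freshly isolated PBMCs (two donors, 30,000 cells/well, X-VIVO 15). T-cell proliferation triggered with phytohemagglutinin at 3 μg/ml.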

SMILES | CypA Kd [1] | CypB Kd [2] | CypF Kd [3] | IC50 [4] | IC50 [5] | Ki [6] | reduction in intracellular HBV DNA levels ([7]; 5.0 mcg/mL, 72 hours) | reduction of HBsAg secretion from cells compared with controls [7] | IC50 [8] | IC50 [9]
C/C=C/C[C@@H](C)[C@@H](O)[C@H]1C(=O)N[C@@H](CC)C(=O)N(C)[C@H](C)C(=O)N(C)[C@@H]([C@H](C)COCCN2CCOCC2)C(=O)N[C@@H](C(C)C)C(=O)N(C)[C@@H](CC(C)C)C(=O)N[C@@H](C)C(=O)N[C@H](C)C(=O)N(C)[C@@H](CC(C)C)C(=O)N(C)[C@@H](CC(C)C)C(=O)N(C)[C@@H](C(C)C)C(=O)N1C [Compound 2.8.1, 3-[D-Ala]-4-[(2S,3S)-3-methyl-2-(methylamino)-4-(2-morpholinoethoxy)butanoyl]-cyclosporin] (cyclo(A[dA][NMeL][NMeL][NMeV][MeBmt][Abu][dNMeA][NMeAbu(3S-Me,4-OC2H4Mor)]V[NMeL])) | 1.4 | 0.7 | 0.0007 µM | 23 µM | 7.6 µM | > 50 µM | – | – | – | –
C/C=C/C[C@@H](C)[C@@H](O)[C@H]1C(=O)N[C@@H](CC)C(=O)N(C)[C@H](C)C(=O)N(CC)[C@@H](C(C)C)C(=O)N[C@@H](C(C)C)C(=O)N(C)[C@@H](CC(C)C)C(=O)N[C@@H](C)C(=O)N[C@H](C)C(=O)N(C)[C@@H](CC(C)C)C(=O)N(C)[C@@H](CC(C)C)C(=O)N(C)[C@@H](C(C)C)C(=O)N1C [alisporivir] | – | – | – | – | – | – | 10 fold | about 50% | – | –
C/C=C/C[C@@H](C)[C@@H](O)[C@H]1C(=O)N[C@@H](CC)C(=O)N(C)[C@H](C)C(=O)N(C)[C@@H]([C@H](C)COC(=O)N2CCN(C)CC2)C(=O)N[C@@H](C(C)C)C(=O)N(C)[C@@H](CC(C)C)C(=O)N[C@@H](C)C(=O)N[C@H](C)C(=O)N(C)[C@@H](CC(C)C)C(=O)N(C)[C@@H](CC(C)C)C(=O)N(C)[C@@H](C(C)C)C(=O)N1C [Compound 2.5.9, 3-[D-Ala]-4-[(2S,3S)-3-methyl-2-(methylamino)-4-((4-methylpiperazine-1-carbonyl)oxy)butanoyl]-cyclosporin] (cyclo(A[dA][NMeL][NMeL][NMeV][MeBmt][Abu][dNMeA][X5]V[NMeL])) | 0.8 | 0.5 | 0.0003 µM | 21 µM | 6.7 µM | > 50 µM | – | – | 0.09 µM | 17.7 µM
C/C=C/C[C@@H](C)[C@@H](O)[C@H]1C(=O)N[C@@H](CC)C(=O)N(C)[C@H](C)C(=O)N(C)[C@@H]([C@H](C)COC)C(=O)N[C@@H](C(C)C)C(=O)N(C)[C@@H](CC(C)C)C(=O)N[C@@H](C)C(=O)N[C@H](C)C(=O)N(C)[C@@H](CC(C)C)C(=O)N(C)[C@@H](CC(C)C)C(=O)N(C)[C@@H](C(C)C)C(=O)N1C [Compound 2.1, 3-[D-Ala]-4-[(2S,3S)-4-methoxy-3-methyl-2-(methylamino)butanoyl]-cyclosporin] | 2.05 | 1.45 | 0.0013 µM | 14 µM | 5.1 µM | > 50 µM | – | – | 0.029 µM | 10.6 µM
C/C=C/C[C@@H](C)[C@@H](O)[C@H]1C(=O)N[C@@H](CC)C(=O)N(C)[C@H](C)C(=O)N(C)[C@@H]([C@H](C)CN2CCOCC2)C(=O)N[C@@H](C(C)C)C(=O)N(C)[C@@H](CC(C)C)C(=O)N[C@@H](C)C(=O)N[C@H](C)C(=O)N(C)[C@@H](CC(C)C)C(=O)N(C)[C@@H](CC(C)C)C(=O)N(C)[C@@H](C(C)C)C(=O)N1C [Compound 2.5.2, 3-[D-Ala]-4-[(2S,3R)-3-methyl-2-(methylamino)-4-morpholinobutanoyl]-cyclosporin] (cyclo(A[dA][NMeL][NMeL][NMeV][MeBmt][Abu][dNMeA][X3]V[NMeL])) | 4.3 | 2.9 | 0.0022 µM | 18 µM | 8.2 µM | > 50 µM | – | – | 0.1 µM | 6.3 µM

— patent US9566312B2, “Cyclic peptides and use as medicines” (priority 2012, dated 2017)
